Six molecules from patent US20240400577A1, “MODULATORS OF PROTEIN KINASES” (VIBLIOME THERAPEUTICS, LLC, priority 2021, published 2024) can be followed below.

What all share (test): Kinase panel enzymatic inhibition assay (Nanosyn)
Holding throughout (type): biochemical
What all share (conditions): compound 5 μM; ATP at Km; 30-minute pre-incubation

For test [1], the target named is T1, CRAF (Homo sapiens, UniProt P04049).
T1 construct: purchased Nanosyn (contract screening)
In short, it runs like this: (§1)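 Read-out is percent inhibition or IC50, obtained by mobility shift, ADP detection or time-resolved fluorescence detection. Each kinase was run with ATP at its Km, and compound at 5 μM was pre-incubated for 30 minutes.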

The target in test [2] is T2, FYN (Homo sapiens, UniProt P06241).
T2 construct: purchased Nanosyn (contract screening)
In short, it runs like this: as §1

Test [3] deals with T3, HGK (Homo sapiens, UniProt O95819).
T3 construct: purchased Nanosyn (contract screening)
The method, boiled down:
as §1

The target of test [4] is T4, DDR2 (Homo sapiens, UniProt Q16832).
T4 construct: purchased Nanosyn (contract screening)
T4 sequence (Q16832 22-855): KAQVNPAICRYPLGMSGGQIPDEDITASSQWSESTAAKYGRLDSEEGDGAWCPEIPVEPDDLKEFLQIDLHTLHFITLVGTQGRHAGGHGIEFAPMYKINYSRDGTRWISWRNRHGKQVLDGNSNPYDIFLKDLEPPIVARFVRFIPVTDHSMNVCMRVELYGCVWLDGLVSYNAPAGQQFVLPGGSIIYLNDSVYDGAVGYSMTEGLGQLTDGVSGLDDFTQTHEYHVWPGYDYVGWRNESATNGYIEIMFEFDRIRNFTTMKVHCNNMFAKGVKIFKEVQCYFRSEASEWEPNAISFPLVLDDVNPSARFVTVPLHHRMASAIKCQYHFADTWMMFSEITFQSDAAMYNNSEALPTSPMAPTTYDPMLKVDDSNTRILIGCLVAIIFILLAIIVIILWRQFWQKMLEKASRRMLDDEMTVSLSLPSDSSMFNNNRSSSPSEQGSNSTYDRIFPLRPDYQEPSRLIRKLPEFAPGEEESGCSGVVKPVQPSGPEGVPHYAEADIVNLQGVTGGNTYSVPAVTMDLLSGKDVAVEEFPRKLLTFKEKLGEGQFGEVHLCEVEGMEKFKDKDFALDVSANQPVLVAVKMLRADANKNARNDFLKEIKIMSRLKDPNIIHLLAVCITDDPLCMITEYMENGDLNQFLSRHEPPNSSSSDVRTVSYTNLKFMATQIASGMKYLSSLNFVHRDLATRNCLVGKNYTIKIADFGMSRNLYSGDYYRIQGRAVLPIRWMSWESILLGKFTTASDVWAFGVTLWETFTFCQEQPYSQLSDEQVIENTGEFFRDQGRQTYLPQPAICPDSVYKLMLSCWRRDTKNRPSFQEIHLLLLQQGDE
In short, it runs like this:
as §1

The target in test [5] is T5, COT1 (Homo sapiens, UniProt P41279).
T5 construct: purchased Nanosyn (contract screening)
In short, it runs like this: as §1

In test [6] the target is T6, MAP4K2 (Homo sapiens, UniProt Q12851).
T6 construct: purchased Nanosyn (contract screening)
T6 sequence (Q12851 1-820): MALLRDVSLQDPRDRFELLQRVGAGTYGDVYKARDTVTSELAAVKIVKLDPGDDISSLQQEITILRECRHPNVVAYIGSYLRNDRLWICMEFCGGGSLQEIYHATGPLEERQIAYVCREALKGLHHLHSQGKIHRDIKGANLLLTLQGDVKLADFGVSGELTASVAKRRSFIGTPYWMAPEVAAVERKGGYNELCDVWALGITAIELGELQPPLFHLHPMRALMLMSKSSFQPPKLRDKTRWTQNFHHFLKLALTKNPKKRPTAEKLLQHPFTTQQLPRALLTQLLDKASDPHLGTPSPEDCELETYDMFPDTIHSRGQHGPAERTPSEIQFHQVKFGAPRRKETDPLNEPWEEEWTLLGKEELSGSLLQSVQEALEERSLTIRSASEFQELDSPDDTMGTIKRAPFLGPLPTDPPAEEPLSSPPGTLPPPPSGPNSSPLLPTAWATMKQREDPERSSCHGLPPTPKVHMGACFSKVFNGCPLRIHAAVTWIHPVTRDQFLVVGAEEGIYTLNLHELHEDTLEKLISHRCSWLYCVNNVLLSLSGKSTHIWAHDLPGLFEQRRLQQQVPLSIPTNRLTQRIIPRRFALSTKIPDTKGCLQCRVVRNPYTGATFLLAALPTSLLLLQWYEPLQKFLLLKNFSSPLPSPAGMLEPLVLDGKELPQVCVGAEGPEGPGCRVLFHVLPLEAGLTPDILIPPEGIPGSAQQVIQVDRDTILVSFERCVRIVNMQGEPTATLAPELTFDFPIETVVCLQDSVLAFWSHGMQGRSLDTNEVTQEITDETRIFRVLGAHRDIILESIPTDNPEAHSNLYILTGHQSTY
The method, boiled down:
as §1

Test [7] addresses T7, ERBB4 (Homo sapiens, UniProt Q15303).
T7 construct: purchased Nanosyn (contract screening)
In short, it runs like this: as §1

Test [8] deals with T8, PDGFRa (Homo sapiens, UniProt P16234).
T8 construct: Nanosyn (contract laboratory that ran the panel)
In short, it runs like this: as §1

The target of test [9] is T9, Abl2 (Homo sapiens, UniProt P42684).
T9 construct: purchased Nanosyn (contract screening)
The method, boiled down:
as §1

The target in test [10] is T10, CSK (Homo sapiens, UniProt P41240).
T10 construct: purchased Nanosyn (contract screening)
The method, boiled down:
as §1

Test [11] deals with T11, LYNa (Homo sapiens, UniProt P07948).
T11 construct: purchased Nanosyn (contract screening)
In short, it runs like this:
as §1

The target of test [12] is T12, BLK (Homo sapiens, UniProt P51451).
T12 construct: purchased Nanosyn (contract screening)
The method, boiled down:
as §1

Test [13] concerns EPH. In short, it runs like this:
as §1

For test [14], the target named is T13, HCK (Homo sapiens, UniProt P08631).
T13 construct: purchased Nanosyn (contract screening)
The method, boiled down: as §1

T12 sequence (P51451 whole entry): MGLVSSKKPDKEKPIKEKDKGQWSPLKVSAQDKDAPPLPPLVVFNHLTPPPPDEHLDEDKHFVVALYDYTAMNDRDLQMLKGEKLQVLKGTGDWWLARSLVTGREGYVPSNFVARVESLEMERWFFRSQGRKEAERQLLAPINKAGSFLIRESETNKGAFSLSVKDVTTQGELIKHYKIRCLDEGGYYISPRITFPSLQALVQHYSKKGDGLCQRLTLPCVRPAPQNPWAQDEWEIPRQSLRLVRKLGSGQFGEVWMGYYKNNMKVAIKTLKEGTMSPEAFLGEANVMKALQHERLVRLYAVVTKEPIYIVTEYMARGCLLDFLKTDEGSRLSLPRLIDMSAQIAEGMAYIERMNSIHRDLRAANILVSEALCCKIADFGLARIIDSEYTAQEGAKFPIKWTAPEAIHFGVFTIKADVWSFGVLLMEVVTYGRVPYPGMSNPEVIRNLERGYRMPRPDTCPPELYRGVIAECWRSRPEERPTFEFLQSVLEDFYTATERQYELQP
T5 sequence (P41279 whole entry): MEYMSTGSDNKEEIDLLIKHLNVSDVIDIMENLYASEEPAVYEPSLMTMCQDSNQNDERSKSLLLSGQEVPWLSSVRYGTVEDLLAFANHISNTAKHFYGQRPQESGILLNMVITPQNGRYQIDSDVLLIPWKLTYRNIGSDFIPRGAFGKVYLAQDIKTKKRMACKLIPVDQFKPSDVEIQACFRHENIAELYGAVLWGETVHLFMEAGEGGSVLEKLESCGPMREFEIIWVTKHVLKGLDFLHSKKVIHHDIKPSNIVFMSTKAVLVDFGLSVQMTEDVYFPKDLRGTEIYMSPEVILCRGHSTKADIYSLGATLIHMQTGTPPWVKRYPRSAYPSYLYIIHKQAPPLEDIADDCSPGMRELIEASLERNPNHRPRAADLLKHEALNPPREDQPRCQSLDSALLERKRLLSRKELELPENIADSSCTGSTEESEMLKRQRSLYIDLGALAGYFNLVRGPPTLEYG
T7 sequence (Q15303 26-1308): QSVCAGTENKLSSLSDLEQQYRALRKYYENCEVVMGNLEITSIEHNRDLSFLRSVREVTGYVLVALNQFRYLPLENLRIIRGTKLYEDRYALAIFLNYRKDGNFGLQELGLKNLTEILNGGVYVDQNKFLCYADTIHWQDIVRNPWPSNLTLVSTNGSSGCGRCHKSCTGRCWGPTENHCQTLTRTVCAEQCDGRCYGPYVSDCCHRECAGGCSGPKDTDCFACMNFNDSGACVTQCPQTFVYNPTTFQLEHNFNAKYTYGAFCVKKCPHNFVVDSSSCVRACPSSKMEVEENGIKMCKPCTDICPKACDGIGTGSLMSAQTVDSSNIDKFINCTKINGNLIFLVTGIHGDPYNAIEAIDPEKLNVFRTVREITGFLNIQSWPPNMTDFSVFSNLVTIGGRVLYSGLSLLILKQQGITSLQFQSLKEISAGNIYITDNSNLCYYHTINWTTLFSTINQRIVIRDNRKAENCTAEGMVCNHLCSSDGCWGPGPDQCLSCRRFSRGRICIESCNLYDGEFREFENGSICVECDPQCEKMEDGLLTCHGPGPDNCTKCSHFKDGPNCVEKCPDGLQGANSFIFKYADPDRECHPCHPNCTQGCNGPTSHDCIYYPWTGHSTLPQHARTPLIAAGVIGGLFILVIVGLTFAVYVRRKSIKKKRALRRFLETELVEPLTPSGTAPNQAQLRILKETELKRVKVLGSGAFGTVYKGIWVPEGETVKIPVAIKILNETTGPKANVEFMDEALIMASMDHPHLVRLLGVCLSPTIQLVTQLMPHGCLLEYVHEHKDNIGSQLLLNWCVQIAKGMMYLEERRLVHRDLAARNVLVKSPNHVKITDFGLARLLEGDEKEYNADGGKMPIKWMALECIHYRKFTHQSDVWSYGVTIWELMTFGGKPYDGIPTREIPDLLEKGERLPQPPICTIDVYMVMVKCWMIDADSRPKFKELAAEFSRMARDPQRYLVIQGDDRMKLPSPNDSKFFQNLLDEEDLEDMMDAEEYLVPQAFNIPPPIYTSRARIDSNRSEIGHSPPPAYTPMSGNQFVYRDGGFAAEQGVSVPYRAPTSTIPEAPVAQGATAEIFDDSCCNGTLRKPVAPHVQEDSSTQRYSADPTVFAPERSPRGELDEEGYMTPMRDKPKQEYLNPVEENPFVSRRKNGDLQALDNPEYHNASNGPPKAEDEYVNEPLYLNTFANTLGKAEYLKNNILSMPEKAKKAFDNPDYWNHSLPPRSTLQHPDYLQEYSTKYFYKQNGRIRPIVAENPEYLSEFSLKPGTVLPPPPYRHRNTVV
T8 sequence (P16234 24-1089): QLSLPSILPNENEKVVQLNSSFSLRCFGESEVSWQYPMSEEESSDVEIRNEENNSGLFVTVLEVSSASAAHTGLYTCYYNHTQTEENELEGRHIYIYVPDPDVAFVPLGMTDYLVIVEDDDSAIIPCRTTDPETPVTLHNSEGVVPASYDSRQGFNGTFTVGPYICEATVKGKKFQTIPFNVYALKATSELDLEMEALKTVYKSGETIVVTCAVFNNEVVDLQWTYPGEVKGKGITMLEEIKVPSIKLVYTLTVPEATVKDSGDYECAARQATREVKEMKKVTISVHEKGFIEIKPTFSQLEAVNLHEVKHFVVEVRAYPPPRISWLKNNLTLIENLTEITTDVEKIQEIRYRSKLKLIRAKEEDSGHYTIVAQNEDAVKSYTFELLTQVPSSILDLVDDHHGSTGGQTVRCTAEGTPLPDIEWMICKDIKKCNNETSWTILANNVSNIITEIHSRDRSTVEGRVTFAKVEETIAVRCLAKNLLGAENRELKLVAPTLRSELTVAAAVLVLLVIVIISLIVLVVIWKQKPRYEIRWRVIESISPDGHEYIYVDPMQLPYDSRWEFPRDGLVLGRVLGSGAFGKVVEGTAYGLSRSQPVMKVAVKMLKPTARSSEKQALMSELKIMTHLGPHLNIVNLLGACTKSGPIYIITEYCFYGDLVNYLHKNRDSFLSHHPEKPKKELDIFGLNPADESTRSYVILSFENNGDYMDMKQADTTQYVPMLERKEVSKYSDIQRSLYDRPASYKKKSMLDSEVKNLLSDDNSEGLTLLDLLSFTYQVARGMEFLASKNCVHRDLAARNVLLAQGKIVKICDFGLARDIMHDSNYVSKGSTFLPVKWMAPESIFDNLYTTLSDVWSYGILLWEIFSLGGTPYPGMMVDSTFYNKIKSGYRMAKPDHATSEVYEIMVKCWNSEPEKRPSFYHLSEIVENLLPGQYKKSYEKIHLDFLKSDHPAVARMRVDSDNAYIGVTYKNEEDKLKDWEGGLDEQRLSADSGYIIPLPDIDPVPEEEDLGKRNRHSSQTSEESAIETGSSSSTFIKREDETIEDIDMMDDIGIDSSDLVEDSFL
T1 sequence (P04049 whole entry): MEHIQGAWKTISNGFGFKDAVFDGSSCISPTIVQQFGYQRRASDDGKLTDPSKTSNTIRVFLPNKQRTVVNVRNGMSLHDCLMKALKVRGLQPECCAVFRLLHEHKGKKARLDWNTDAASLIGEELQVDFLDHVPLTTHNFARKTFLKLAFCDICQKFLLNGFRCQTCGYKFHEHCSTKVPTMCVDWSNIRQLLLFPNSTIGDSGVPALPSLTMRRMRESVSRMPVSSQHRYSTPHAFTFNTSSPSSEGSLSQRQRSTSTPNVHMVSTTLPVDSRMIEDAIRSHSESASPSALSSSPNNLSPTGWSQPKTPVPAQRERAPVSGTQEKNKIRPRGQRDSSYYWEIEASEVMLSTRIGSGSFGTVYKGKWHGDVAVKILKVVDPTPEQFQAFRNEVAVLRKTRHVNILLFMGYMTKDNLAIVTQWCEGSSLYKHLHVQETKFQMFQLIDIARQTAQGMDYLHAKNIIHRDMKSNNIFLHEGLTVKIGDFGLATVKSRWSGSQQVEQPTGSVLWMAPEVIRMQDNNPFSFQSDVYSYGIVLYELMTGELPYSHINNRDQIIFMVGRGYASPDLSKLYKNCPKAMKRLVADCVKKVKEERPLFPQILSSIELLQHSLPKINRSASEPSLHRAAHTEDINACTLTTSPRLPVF
T10 sequence (P41240 whole entry): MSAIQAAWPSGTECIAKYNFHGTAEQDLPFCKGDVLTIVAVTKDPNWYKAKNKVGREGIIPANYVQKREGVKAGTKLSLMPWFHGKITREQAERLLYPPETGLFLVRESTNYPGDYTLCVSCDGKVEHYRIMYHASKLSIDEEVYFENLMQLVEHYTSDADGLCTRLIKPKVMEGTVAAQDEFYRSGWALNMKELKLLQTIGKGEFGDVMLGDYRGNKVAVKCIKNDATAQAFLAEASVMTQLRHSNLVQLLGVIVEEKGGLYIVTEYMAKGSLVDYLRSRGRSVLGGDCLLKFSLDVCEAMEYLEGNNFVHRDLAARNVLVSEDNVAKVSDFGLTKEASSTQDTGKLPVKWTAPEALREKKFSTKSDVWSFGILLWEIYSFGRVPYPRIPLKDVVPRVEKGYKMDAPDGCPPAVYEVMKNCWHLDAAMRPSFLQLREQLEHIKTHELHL
T13 sequence (P08631 whole entry): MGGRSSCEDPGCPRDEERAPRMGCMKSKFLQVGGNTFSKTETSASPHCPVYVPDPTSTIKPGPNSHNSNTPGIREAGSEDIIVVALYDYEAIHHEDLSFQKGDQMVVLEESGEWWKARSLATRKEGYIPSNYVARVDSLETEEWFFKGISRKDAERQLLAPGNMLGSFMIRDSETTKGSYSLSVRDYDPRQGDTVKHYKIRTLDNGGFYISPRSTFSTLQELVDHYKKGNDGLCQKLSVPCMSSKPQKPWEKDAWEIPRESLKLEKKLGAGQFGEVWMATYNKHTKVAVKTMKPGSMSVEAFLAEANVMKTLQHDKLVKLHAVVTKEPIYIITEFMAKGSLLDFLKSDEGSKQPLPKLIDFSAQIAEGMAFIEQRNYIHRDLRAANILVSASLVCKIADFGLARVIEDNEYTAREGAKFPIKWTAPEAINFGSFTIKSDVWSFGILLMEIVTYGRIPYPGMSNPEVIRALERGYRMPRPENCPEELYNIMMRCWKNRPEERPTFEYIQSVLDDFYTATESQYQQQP

For the molecule `CSc1cc(C(=O)Nc2cc(Oc3ccnc(C(=O)NC4CNC4)c3)ccc2F)nn1-c1ccc(F)cc1` [Ex8, N-(azetidin-3-yl)-4-(4-fluoro-3-(1-(4-fluorophenyl)-5-(methylthio)-1H-pyrazole-3-carboxamido)phenoxy)picolinamide], the inhibition at 5 µM in [1] is at least 95%; in [2], below 79%; in [3] it was 80 to 89%; in test [4] it was below 79%; in test [5], 90 to 94%; in [6], 80 to 89%. The inhibition at 5 µM in [7], in test [8], in test [9], in [10], in test [11] and in [12] was below 79% throughout. Besides, the inhibition at 5 µM in test [14] is below 79%. Moreover, the “kinase inhibition, EPH” value in test [13] is “D (D=79% and less)”.
`Cc1ccc(NC(=O)c2cc(S(C)(=O)=O)n(-c3ccc(F)cc3)n2)cc1-c1cc(OCCO)nc(N2CCOCC2)c1` [Ex9, 1-(4-fluorophenyl)-N-(3-(2-(2-hydroxyethoxy)-6-morpholinopyridin-4-yl)-4-methylphenyl)-5-(methylsulfonyl)-1H-pyrazole-3-carboxamide]: the inhibition at 5 µM in [1] was at least 95%; in [2], below 79%; in test [3], below 79%; in test [4], 90 to 94%; in test [5] it was below 79%; in test [6], below 79%. Moreover, the inhibition at 5 µM in test [7], in test [8], in test [9], in [10], in test [11] and in test [12] was below 79% throughout. In addition, the inhibition at 5 µM in test [14] was below 79%. Further, the “kinase inhibition, EPH” value in test [13] is “D (D=79% and less)”.
For the molecule `Cc1ccc(NC(=O)c2cc([S+](C)[O-])n(-c3ccc(F)cc3)n2)cc1-c1cc(OCCO)nc(N2CCOCC2)c1` (stereo not drawn) [Ex10, 1-(4-fluorophenyl)-N-(3-(2-(2-hydroxyethoxy)-6-morpholinopyridin-4-yl)-4-methylphenyl)-5-(methylsulfinyl)-1H-pyrazole-3-carboxamide], the inhibition at 5 µM was at least 95% in test [1]; below 79% in [2]; below 79% in [3]; 80 to 89% in test [4]; below 79% in test [5]; below 79% in test [6]. The inhibition at 5 µM in test [7], in test [8], in [9], in [10], in test [11] and in [12] was below 79% throughout. Moreover, the inhibition at 5 µM in [14] is below 79%. For the same molecule, the “kinase inhibition, EPH” value in test [13] is “D (D=79% and less)”.
In the case of `Cc1ccc(NC(=O)c2cc([S+](C)[O-])n(-c3ccc(F)cc3)n2)cc1-c1cc(N2CCOCC2)c(=O)n(C)c1` (stereo not drawn) [Ex11, 1-(4-fluorophenyl)-N-(4-methyl-3-(1-methyl-5-morpholino-6-oxo-1,6-dihydropyridin-3-yl)phenyl)-5-(methylsulfinyl)-1H-pyrazole-3-carboxamide], the inhibition at 5 µM in test [1] is at least 95%; in [2] it was below 79%; in test [3] it was below 79%; in [4], below 79%; in test [5], below 79%; in test [6], below 79%. Also, the inhibition at 5 µM in test [7], in test [8], in [9], in test [10], in test [11] and in test [12] was below 79% in each case. Besides, the inhibition at 5 µM in test [14] was below 79%. The “kinase inhibition, EPH” value in [13] was “D (D=79% and less)”.
Turning to `Cc1ccc(NC(=O)c2cc(S(C)(=O)=O)n(-c3ccc(F)cc3)n2)cc1-c1cc(N2CCOCC2)c(=O)n(C)c1` [Ex12, 1-(4-fluorophenyl)-N-(4-methyl-3-(1-methyl-5-morpholino-6-oxo-1,6-dihydropyridin-3-yl)phenyl)-5-(methylsulfonyl)-1H-pyrazole-3-carboxamide], the inhibition at 5 µM in [1] is at least 95%; in test [2], below 79%; in test [3] it was below 79%; in test [4] it was below 79%; in [5], below 79%; in test [6], below 79%. Also, the inhibition at 5 µM in test [7], in test [8], in test [9], in test [10], in [11] and in test [12] was below 79% in each case. Moreover, the inhibition at 5 µM in test [14] is below 79%. The “kinase inhibition, EPH” value in test [13] is “D (D=79% and less)”.
In the case of `Cc1ccc(NC(=O)c2cc(S(C)(=O)=O)n(-c3ccc(F)cc3)n2)cc1Nc1nccc(-c2cccnc2N)n1` [Ex13, N-(3-((4-(2-aminopyridin-3-yl)pyrimidin-2-yl)amino)-4-methylphenyl)-1-(4-fluorophenyl)-5-(methylsulfonyl)-1H-pyrazole-3-carboxamide], the inhibition at 5 µM in [1] is below 79%; in test [2], below 79%; in [3], below 79%; in [4], at least 95%; in [5], below 79%; in test [6] it was below 79%. Moreover, the inhibition at 5 µM is 80 to 89% in test [7]; at least 95% in [8]; at least 95% in test [9]; below 79% in test [10]; at least 95% in test [11]; below 79% in test [12]. In [14], this molecule registered an inhibition at 5 µM below 79%. The “kinase inhibition, EPH” value in test [13] was “D (D=79% and less)”.
